Test results published in US11780868B1, “Homoleptic metal coordination complexes as antifungal agents” (King Abdulaziz University, priority 2023, dated 2023).

Key:
Format in all cases: cell-based, Candida albicans
C. albicans cells = test: TUNEL assay for DNA fragmentation; conditions: 0.5×MIC and 1×MIC, concentration dependent
Procedure: To examine the effect of C1 on the induction of cellular apoptosis in C. albicans cells, crucial apoptotic markers were observed. For this purpose, C. albicans 4251 and C. albicans 5112 cells were subjected to protoplast preparation by utilizing a method described previously by Srivastava et al. in 2020 through their research study. Briefly, cells were grown overnight and were exposed for 4 h with different concentrations of C1 (0.5×MIC and 1×MIC) and H2O2 (positive control) whereas, untreated cells were used as a negative control. Later on, the cells were washed and incubated for 10 min at room temperature in protoplast buffer-1 (1M sorbitol, 0.05M tris base, 0.01M MgCl2, 0.03M DTT, pH 7.4). The cells were spun at 1500 rpm for 5 min and the pellet was resuspended in protoplast buffer-2 (1M sorbitol, 0.05M tris base, 0.01M MgCl2, 0.001M DTT, pH 7.4) supplemented with lyticase enzyme (1 μg/mL) and incubated for 1 h at room temperature. […]
We further performed an assay to detect the presence of DNA damage in C. albicans, an indicator of late-stage apoptosis. […] The protoplasts were again washed with PBS and all the samples were examined under a fluorescence microscope using Zeiss Laser Scanning Confocal Microscope (LSM) 780 (Carl Zeiss Microscopy, Jena, Germany). […]

C. albicans 4251 [1] = test: JC-10 mitochondrial membrane potential assay; conditions: 4 h, negative control 2.65
Procedure: (§1) To examine the effect of C1 on the induction of cellular apoptosis in C. albicans cells, crucial apoptotic markers were observed. For this purpose, C. albicans 4251 and C. albicans 5112 cells were subjected to protoplast preparation by utilizing a method described previously by Srivastava et al. in 2020 through their research study. […] Later on, the cells were washed and incubated for 10 min at room temperature in protoplast buffer-1 (1M sorbitol, 0.05M tris base, 0.01M MgCl2, 0.03M DTT, pH 7.4). The cells were spun at 1500 rpm for 5 min and the pellet was resuspended in protoplast buffer-2 (1M sorbitol, 0.05M tris base, 0.01M MgCl2, 0.001M DTT, pH 7.4) supplemented with […] enzyme (1 μg/mL) and incubated for 1 h at room temperature. Afterwards, the cell suspension was again centrifuged, and the pellet was resuspended and incubated for 20 min at room temperature in protoplast buffer-3 (1M sorbitol, 0.05M tris base, 0.01M MgCl2, pH 7.4). A final washing (1500 rpm for 5 min) was given to the cells and the pellet consisting of C. albicans protoplasts was resuspended in fresh PBS and was stored at 4° C. until further use. Measurement of mitochondrial membrane potential in C. albicans was carried out and the potential of C1 in destabilising mitochondrial membrane potential (Δψm) in C. albicans was established by JC-10 mitochondrial membrane potential assay kit (Abeam, Cambridge, UK). The experiment was performed according to manufacturer instructions. 90 μL of prepared protoplast of C. albicans 4251 and C. albicans 5112 was added to a 96-well microplate (with black walls and clear bottom), followed by the addition of 50 μL/well of JC-10 dye-loading solution. The microplate was incubated for 1 hour at 37° C. in the dark. This was followed by the addition of 50 μL/well of assay buffer B. The microplate was then immediately centrifuged at 800 rpm for 2 minutes. The fluorescence intensity was monitored at an Ex/Em=490/530 nm (present in apoptotic cells, monomeric form and green fluorescence; represented as X) and 540/590 nm (present in live cells, dye aggregates and red fluorescence; represented as Y) using a SpectraMax® ID3 Multimode Plate Reader (Molecular Devices, LLC., USA). The ratio between the aggregate and monomeric forms was measured to find the change in mitochondrial membrane potential. The mitochondrial membrane depolarization is indicated by decreasing ratio values.

C. albicans 5112 [2] = test: JC-10 mitochondrial membrane potential assay; conditions: 4 h, negative control 2.92
Procedure: as §1

C. albicans 4251 [3] = test: Cell count and viability assay (Muse cell analyser); conditions: C. albicans 4251 (Flz susceptible), C1 at MFC, 24 h; untreated 90.9%
Procedure: (§2) Quantification of Live/Dead C. albicans cells in response to C1 was carried out. The actual count of viable and dead cells of C. albicans by treatment of C1 was monitored by Cell Count and Viability assay kit. An inoculum (1×10^6 cells/mL) of both Flz sensitive (C. albicans 4251) and resistant (C. albicans 5112) C. albicans strains was prepared followed by treatment with various concentrations of C1 (0.5×MIC, 1×MIC and MFC) for 24 h at 37° C. and 150 rpm. For the negative control, only inoculum treated with 1% DMSO was used and for the positive control, hydrogen peroxide (10 mM) was used in a 1:1 ratio with the inoculum. Following incubation, the cells were then washed in PBS and centrifuged at 4000 rpm for 5 minutes at 4° C. and the final pellet was resuspended in PBS. The Cell Count and Viability assay samples were prepared by mixing 190 μL of Luminex Cell Viability Dilution Buffer and 10 μL of the sample in a 1.5 mL Eppendorf tube and incubated in the dark for 5 min at room temperature. All samples were analysed by a Guava® Muse® Cell Analyser (Luminex A DiaSorin Company, USA).

C. albicans 5112 [4] = test: as above; conditions: C. albicans 5112 (Flz resistant), C1 at MFC, 24 h; untreated 86.8%
Procedure: as §2

Brc1ccc([O][Co][O]c2ccc(Br)cc2C=Nc2ccc3c(c2)OCCO3)c(C=Nc2ccc3c(c2)OCCO3)c1 [Complex C1, [Co(L)2]]
DNA fragmentation (TUNEL-positive cells) (C. albicans cells): effective at inducing DNA fragmentation
average fluorescence ratio JC-10 aggregates/JC-10 monomers (C. albicans 4251 [1]; C. albicans 4251, 0.5×MIC): 2.04
average fluorescence ratio JC-10 aggregates/JC-10 monomers (C. albicans 4251 [1]; C. albicans 4251, 1×MIC): 1.6
average fluorescence ratio JC-10 aggregates/JC-10 monomers (C. albicans 5112 [2]; C. albicans 5112, 0.5×MIC): 2.24
average fluorescence ratio JC-10 aggregates/JC-10 monomers (C. albicans 5112 [2]; C. albicans 5112, 1×MIC): 1.71
live cells (C. albicans 4251 [3]): 4.3%
live cells (C. albicans 5112 [4]): 8.4%
